In patent US11058780B2, “Palpable marker composition” (TECHNICAL UNIVERSITY OF DENMARK, priority 2016, dated 2021):

Experiment: Solubility in ethanol and doping of iodo-SAIB into SAIB
Format: physicochemical
Conditions: neat LOIB

## CC(C)C(=O)OC[C@H]1O[C@@H](O[C@H]2[C@H](OC(=O)C(C)C)[C@@H](OC(=O)C(C)C)C(OC(=O)C(C)C)O[C@@H]2COC(=O)C(C)C)[C@H](OC(=O)C(C)C)[C@@H](OC(=O)C(C)C)[C@H]1OC(=O)C(C)C (stereo partly drawn) [LOIB, α,β Lactose Octaisobutyrate]
  solubility in anhydrous EtOH: readily dissolves
